Test results: patent publication US20200222474A1, “COMPOSITIONS AND METHODS FOR INCREASING PHYTOCHEMICAL BIOAVAILABLITY AND BIOACTIVITY” (North Carolina State University, priority 2017, published 2020)

System: L. acidophilus NCFM
Assay: RNA-seq transcriptional analysis of L. acidophilus NCFM growing on plant glycosides
Format: cell-based, Lactobacillus acidophilus
[1] = LBA1481 D-ribose-binding protein precursor, COG G
[2] = LBA1482 Ribose ABC transporter, COG G
[3] = LBA1483 Ribose ABC transporter ATP binding protein, COG G
[4] = LBA1484 D-ribose pyranase, COG G
[5] = LBA1494 Lincomycin-resistance protein, COG GEPR
[6] = LBA1607 Phosphatidylserine decarboxylase precursor, COG I
[7] = LBA1632 NAD-dependent aldehyde dehydrogenase, COG C
[8] = LBA1653 Nicotinamide mononucleotide, COG H
[9] = LBA1684 Putative PTS system IIA component, COG G
[10] = LBA1689 Maltose-6′-phosphate Oucosidase, COG G
[11] = LBA1700 Transcriptional regulator-type, COG K
[12] = LBA1701 Melibiose operon regulatory protein, COG K
[13] = LBA1705 PTS system IIBC component, COG G
[14] = LBA1708 Transcriptional antiterminator, COG K
[15] = LBA1710 Thermostable pullulanase, COG G
[16] = LBA1812 Alpha-glucosidase II, COG G
[17] = LBA1870 Maltose phosphorylase, COG G
[18] = LBA1872 Oligo-1,6-glucosidase, COG G
[19] = LBA1955 Transcription regulator family protein, COG K
[20] = gene LBA0046 (Hypothetical protein)
[21] = gene LBA0149 (Putative nucleotide-binding protein)
[22] = gene LBA0263 (Hypothetical protein)

For `O=c1ccc2cc(O[C@@H]3O[C@H](CO)[C@@H](O)[C@H](O)[C@H]3O)c(O)cc2o1` [Esculin], which “Transcripts per million (rpm)” value (LBA1468 Beta-galactosidase small subunit, COG G) is on record?
The value was 38.7 rpm.

And the “Log2 differential normalized TPM ratio compared to glucose” value [1]?
The value was 0.9.

What about the “Log2 differential normalized TPM ratio compared to lactose” value [1] of the same molecule?
Its value is 0.1.

What about the “Transcripts per million (rpm)” value [1] of the same molecule?
Its value is 9.2 rpm.

What about the “Log2 differential normalized TPM ratio compared to glucose” value [2] of the same molecule?
The value was 1.

And the “Log2 differential normalized TPM ratio compared to lactose” value [2]?
Its value is 0.

And the “Transcripts per million (rpm)” value [2]?
The value was 8.1 rpm.

What about the “Log2 differential normalized TPM ratio compared to glucose” value [3] of the same molecule?
The value was 0.4.

And the “Log2 differential normalized TPM ratio compared to lactose” value [3]?
The value was −0.7.

What about the “Transcripts per million (rpm)” value [3] of the same molecule?
The value was 4.2 rpm.

And the “Log2 differential normalized TPM ratio compared to glucose” value [4]?
Its value is 0.4.

What about the “Log2 differential normalized TPM ratio compared to lactose” value [4] of the same molecule?
The value was −0.3.

What about the “Transcripts per million (rpm)” value [4] of the same molecule?
Its value is 5.3 rpm.

What about the “Log2 differential normalized TPM ratio compared to glucose” value (LBA1485 Ribokinase, COG G) of the same molecule?
The value was −0.3.

And the “Log2 differential normalized TPM ratio compared to lactose” value (LBA1485 Ribokinase, COG G)?
The value was −1.

And the “Transcripts per million (rpm)” value (LBA1485 Ribokinase, COG G)?
Its value is 2.7 rpm.

What about the “Log2 differential normalized TPM ratio compared to glucose” value [5] of the same molecule?
Its value is 3.6.

And the “Log2 differential normalized TPM ratio compared to lactose” value [5]?
The value was 3.6.

What about the “Transcripts per million (rpm)” value [5] of the same molecule?
Its value is 69.4 rpm.

And the “Log2 differential normalized TPM ratio compared to glucose” value [6]?
The value was 1.5.

And the “Log2 differential normalized TPM ratio compared to lactose” value [6]?
The value was 0.5.

What about the “Transcripts per million (rpm)” value [6] of the same molecule?
Its value is 59.5 rpm.

And the “Log2 differential normalized TPM ratio compared to glucose” value [7]?
The value was 3.3.

What about the “Log2 differential normalized TPM ratio compared to lactose” value [7] of the same molecule?
Its value is 1.5.

What about the “Transcripts per million (rpm)” value [7] of the same molecule?
Its value is 730.5 rpm.

What about the “Log2 differential normalized TPM ratio compared to glucose” value [8] of the same molecule?
Its value is 2.

And the “Log2 differential normalized TPM ratio compared to lactose” value [8]?
Its value is 1.4.

What about the “Transcripts per million (rpm)” value [8] of the same molecule?
Its value is 996.7 rpm.

And the “Log2 differential normalized TPM ratio compared to glucose” value [9]?
The value was 2.9.

What about the “Log2 differential normalized TPM ratio compared to lactose” value [9] of the same molecule?
Its value is 1.

And the “Transcripts per million (rpm)” value [9]?
Its value is 98.9 rpm.

What about the “Log2 differential normalized TPM ratio compared to glucose” value [10] of the same molecule?
Its value is 1.8.

And the “Log2 differential normalized TPM ratio compared to lactose” value [10]?
The value was 0.3.

And the “Transcripts per million (rpm)” value [10]?
Its value is 12.7 rpm.

And the “Log2 differential normalized TPM ratio compared to glucose” value [11]?
The value was 1.5.

What about the “Log2 differential normalized TPM ratio compared to lactose” value [11] of the same molecule?
Its value is 1.

What about the “Transcripts per million (rpm)” value [11] of the same molecule?
Its value is 61.9 rpm.

What about the “Log2 differential normalized TPM ratio compared to glucose” value [12] of the same molecule?
The value was 4.9.

And the “Log2 differential normalized TPM ratio compared to lactose” value [12]?
The value was 4.1.

What about the “Transcripts per million (rpm)” value [12] of the same molecule?
The value was 1259.8 rpm.

And the “Log2 differential normalized TPM ratio compared to glucose” value [13]?
The value was 2.2.

What about the “Log2 differential normalized TPM ratio compared to lactose” value [13] of the same molecule?
The value was 1.3.

What about the “Transcripts per million (rpm)” value [13] of the same molecule?
Its value is 15.9 rpm.

And the “Log2 differential normalized TPM ratio compared to glucose” value [14]?
Its value is 1.4.

What about the “Log2 differential normalized TPM ratio compared to lactose” value [14] of the same molecule?
Its value is 0.

What about the “Transcripts per million (rpm)” value [14] of the same molecule?
Its value is 1.6 rpm.

And the “Log2 differential normalized TPM ratio compared to glucose” value [15]?
Its value is 0.3.

What about the “Log2 differential normalized TPM ratio compared to lactose” value [15] of the same molecule?
The value was −0.1.

And the “Transcripts per million (rpm)” value [15]?
The value was 9.6 rpm.

And the “Log2 differential normalized TPM ratio compared to glucose” value (LBA1723 Transposase, COG L)?
Its value is 0.

And the “Log2 differential normalized TPM ratio compared to lactose” value (LBA1723 Transposase, COG L)?
The value was −0.2.

And the “Transcripts per million (rpm)” value (LBA1723 Transposase, COG L)?
Its value is 55.8 rpm.

What about the “Log2 differential normalized TPM ratio compared to glucose” value [16] of the same molecule?
The value was 2.8.

What about the “Log2 differential normalized TPM ratio compared to lactose” value [16] of the same molecule?
The value was 0.8.

What about the “Transcripts per million (rpm)” value [16] of the same molecule?
Its value is 120.6 rpm.

What about the “Log2 differential normalized TPM ratio compared to glucose” value [17] of the same molecule?
The value was 0.

What about the “Log2 differential normalized TPM ratio compared to lactose” value [17] of the same molecule?
The value was 1.2.

What about the “Transcripts per million (rpm)” value [17] of the same molecule?
The value was 109.2 rpm.

And the “Log2 differential normalized TPM ratio compared to glucose” value (LBA1871 Neopullulanase, COG G)?
Its value is 2.1.

And the “Log2 differential normalized TPM ratio compared to lactose” value (LBA1871 Neopullulanase, COG G)?
Its value is 1.4.

And the “Transcripts per million (rpm)” value (LBA1871 Neopullulanase, COG G)?
The value was 12.2 rpm.

And the “Log2 differential normalized TPM ratio compared to glucose” value [18]?
The value was 1.

What about the “Log2 differential normalized TPM ratio compared to lactose” value [18] of the same molecule?
The value was 0.6.

And the “Transcripts per million (rpm)” value [18]?
The value was 6.3 rpm.

And the “Log2 differential normalized TPM ratio compared to glucose” value (LBA1873 Acetate kinase, COG C)?
The value was 0.8.

And the “Log2 differential normalized TPM ratio compared to lactose” value (LBA1873 Acetate kinase, COG C)?
The value was −0.5.

And the “Transcripts per million (rpm)” value (LBA1873 Acetate kinase, COG C)?
Its value is 6.4 rpm.

And the “Log2 differential normalized TPM ratio compared to glucose” value (LBA1878 Glycerol kinase, COG C)?
Its value is 2.1.

And the “Log2 differential normalized TPM ratio compared to lactose” value (LBA1878 Glycerol kinase, COG C)?
Its value is 2.

What about the “Transcripts per million (rpm)” value (LBA1878 Glycerol kinase, COG C) of the same molecule?
The value was 38 rpm.

And the “Log2 differential normalized TPM ratio compared to glucose” value [19]?
Its value is −1.3.

And the “Log2 differential normalized TPM ratio compared to lactose” value [19]?
The value was −0.9.

And the “Transcripts per million (rpm)” value [19]?
Its value is 218.2 rpm.

And the “number of up-regulated genes” value (RNA-seq, compared to glucose)?
Its value is 87 genes.

What about the “number of uniquely induced genes” value (RNA-seq, up-regulated genes not shared with the other PGs) of the same molecule?
Its value is 35.

What about the “Log2 differential normalized TPM ratio compared to glucose” value [20] of the same molecule?
Its value is 2.2.

And the “Log2 differential normalized TPM ratio compared to lactose” value [20]?
Its value is 1.5.

What about the “Transcripts per million (rpm)” value [20] of the same molecule?
The value was 1439.6 rpm.

What about the “Log2 differential normalized TPM ratio compared to glucose” value [21] of the same molecule?
The value was 1.4.

And the “Log2 differential normalized TPM ratio compared to lactose” value [21]?
Its value is 0.6.

What about the “Transcripts per million (rpm)” value [21] of the same molecule?
Its value is 1325.7 rpm.

What about the “Log2 differential normalized TPM ratio compared to glucose” value [22] of the same molecule?
Its value is 1.8.

What about the “Log2 differential normalized TPM ratio compared to lactose” value [22] of the same molecule?
Its value is 1.1.

And the “Transcripts per million (rpm)” value [22]?
The value was 59.9 rpm.
